# Experimental data as given in patent US7351857B2, “Methods of using substituted tetralins and indanes” (Janssen Pharmaceutica N.V., priority 2002, dated 2008).
# Tests used:
# ob/ob mice = assay: 11 day oral dosing in female ob/ob mice: serum TG, glucose, insulin; assay type: in vivo; conditions: 1.0 mpk, oral once daily 11 days, % change vs vehicle
# Experimental: (Female ob/ob mice (C57 BU6J-Lep^ob, Jackson Labs, Bar Harbor, Me.), 7 weeks of age, were housed two per cage in solid-bottomed shoe box cages. Room temperature was maintained at 68-72° F. and humidity at 50-65%. Room lighting was on a 12-hour light/12-hour dark cycle. Mice were fed a certified NIH Rat and Mouse diet #5K50 (P M I Nutrition Int'l, St. Louis, Mo., via W. F. Fisher and Son, Inc., Bound Brook, N.J.). Food and water were supplied ad libitum.
# The compound was prepared as suspensions in 0.5% hydroxypropyl-methylcellulose (Dow Chemical, Midland, Mich.). The dosing volume was 10 mL/kg of body weight. Female ob/ob diabetic mice (8/group) were orally gavaged once daily for 11 days with either 0.5% methylcellulose in dH2O (vehicle) or PPAR agonist at 0.003, 0.01, 0.03, 0.1, 0.3, 1 mg/kg/day. Body weight was measured in the mornings on Day 1, prior to dosing, and on Day 12 before bleeding. 18 hours after the final dose for each group, the mice were anesthetized with CO2/O2 (70%:30%) and bled by retro-orbital sinus puncture into micro-tubes containing clog activator and then put in ice. The serum samples were prepared by centrifugation. Serum glucose and triglycerides were determined by using COBAS Mira Plus blood chemistry analyzer (Roche Diagnostics, N.J.). Serum insulin and free fatty acids were measured by using ALPCO insulin ELISA kit and Wako NEFA kit, respectively. […]
# PPARγ = target: T1, PPARγ (Homo sapiens, UniProt P37231); assay: aP2 assay for PPAR gamma agonists (bDNA aP2 mRNA in preadipocytes); assay type: cell-based; conditions: unbracketed values; PPARγ standard FI = 70.3
# T1 construct: Following the challenge of the preadipocytes, cells may be lysed with lysis buffer; endogenous in cells; host or cells: preadipocytes
# T1 sequence (P37231 1-505): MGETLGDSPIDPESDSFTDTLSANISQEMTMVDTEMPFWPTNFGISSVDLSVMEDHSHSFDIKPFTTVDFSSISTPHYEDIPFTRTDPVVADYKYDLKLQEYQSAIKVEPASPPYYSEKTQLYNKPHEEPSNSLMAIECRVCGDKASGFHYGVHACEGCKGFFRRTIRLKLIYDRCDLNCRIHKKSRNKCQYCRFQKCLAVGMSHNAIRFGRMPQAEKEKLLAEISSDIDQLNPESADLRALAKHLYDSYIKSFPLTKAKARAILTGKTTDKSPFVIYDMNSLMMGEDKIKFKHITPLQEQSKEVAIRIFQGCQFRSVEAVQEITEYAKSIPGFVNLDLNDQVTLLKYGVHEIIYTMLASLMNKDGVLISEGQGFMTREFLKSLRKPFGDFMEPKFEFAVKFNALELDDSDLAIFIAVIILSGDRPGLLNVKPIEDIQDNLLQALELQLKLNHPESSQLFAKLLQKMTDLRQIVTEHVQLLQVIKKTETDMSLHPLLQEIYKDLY
# Experimental: The procedure is described in detail in Burris et al., Molecular Endocrinology, 1999, 13:410, which is hereby incorporated by reference in its entirety, and aP2 assay results of agonist intrinsic activity may be presented as fold increase over vehicle in induction of aP2 mRNA production.
# Twenty-four hours after the initial seeding of the 96-well plates by hand (around 20,000/well), the differentiation assay may be initiated. Medium may be removed and replaced with 150 μl of differentiation medium containing vehicle (DMSO) or test compounds. Cells may be returned to incubator for 24 hours culture. At the termination of the challenge, medium may be removed and 100 ul of lysis buffer may be added to initiate the bDNA aP2 mRNA assay. The branched DNA assay may be performed according to the manufacturer's protocol (Bayer Diagnostics; Emeryville, Calif.). Result may be expressed as the fold increase of aP2 mRNA production activated over vehicle controls. EC50's and Emax may be determined by non-linear regression with a sigmoidal fit curve.
# Following the challenge of the preadipocytes, cells may be lysed with lysis buffer (Bayer Diagnostics) containing the aP2 oligonucleotides. After a 15 minute incubation at 53° C. or 30 minutes at 37° C. incubator, 70 ul of the lysis buffer from each well may be added to a corresponding capture well (preincubated with 70 ul of blocking buffer (Bayer Diagnostics)). The capture plate may be incubated overnight at 53° C. in a plate incubator (Bayer Diagnostics). After this incubation, the bDNA and labeled probes may be annealed as directed by the manufacturer. Following a 30-minute incubation with the luminescent alkaline phosphatase substrate, dioxitane, the luminescence may be quantitated in a Dynex MLX microtiter plate luminometer. Oligonucleotide probes designed to anneal to the aP2 mRNA and function in the bDNA mRNA detection system are designed with ProbeDesigner software (Bayer Diagnostics). This software package analyzes a target sequence of interest with a series of algorithms in order to determine which regions of the sequence can perform as locations for capture, label, or spacer probe annealing. The sequences of the oligonucleotides are as follows: […]
# PPARδ = target: T2, PPARδ (Homo sapiens, UniProt Q03181); assay: Transfection assay for PPARδ receptors (PPAR-Gal4 / Gal4-luciferase reporter in HEK293 cells); assay type: cell-based; conditions: unbracketed values, PPARδ standard FI = 36.1
# T2 sequence (Q03181 171-441 limits assumed): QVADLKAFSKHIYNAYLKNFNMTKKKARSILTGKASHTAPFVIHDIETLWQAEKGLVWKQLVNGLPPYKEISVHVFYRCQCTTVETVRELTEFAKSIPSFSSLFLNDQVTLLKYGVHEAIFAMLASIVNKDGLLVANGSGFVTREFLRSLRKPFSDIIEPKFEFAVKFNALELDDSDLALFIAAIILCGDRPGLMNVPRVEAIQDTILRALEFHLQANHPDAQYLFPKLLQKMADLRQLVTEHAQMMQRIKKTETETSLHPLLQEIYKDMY
# Experimental: HEK293 cells were grown in DMEM/F-12 Media supplemented with 10% FBS and glutamine (GIBCOBRL). The cells were co-transfected with DNA for PPAR-Gal4 receptor and Gal4-Luciferase Reporter using the DMRIE-C Reagent. On the following day, the DNA-containing medium were replaced with 5% Charcoal treated FBS growth medium. After six hours, cells were seeded in 96 well plate and incubated at 37° C. in CO2 incubator overnight. Cells were challenged by test compounds and incubated for 24 hours at 37° C. in 5% CO2 incubator. Luciferase activity was assayed using the Steady-Glo Luciferase Assay Kit from Promega. DMRIE-C Reagent was purchased from GIBCO Cat. No. 10459-014. OPTI-MEM I Reduced Serum Medium was purchased from GIBCO Cat. No. 31985. Steady-Glo Luciferase Assay Kit was obtained from Promega Part# E254B.
SMILES,Δ Plasma Glucose (ob/ob mice),Δ Plasma Insulin (ob/ob mice),PPARγ FI (fold induction) (PPARγ),PPARδ FI (fold induction) (PPARδ)
"CCN(C(=O)Nc1ccc(OC(F)(F)F)cc1)C1CCc2cc(SC(C)(C)C(=O)O)c(F)cc2C1 (centres unmarked) [Example 50, 2-{6-[1-Ethyl-3-(4-trifluoromethoxyphenyl)ureido]-3-fluoro-5,6,7,8-tetrahydronaphthalen-2-ylsulfanyl}-2-methylpropionic acid]",−74%,−93%,–,–
"CCCCCN(C(=O)Nc1ccc(OC(F)(F)F)cc1)C1Cc2ccc(SC(C)(C)C(=O)O)cc2C1 (centres unmarked) [Example 8, 2-Methyl-2-{2-[1-pentyl-3-(4-trifluoromethoxyphenyl)ureido]indan-5-ylsulfanyl}-2-methylpropionic acid]",–,–,1.9,5.9
"CCN(C(=O)Nc1ccc(OC(F)(F)F)cc1)C1Cc2ccc(SC(C)(C)C(=O)O)cc2C1 (centres unmarked) [Example 2, 2-{2-[1-Ethyl-3-(4-trifluoromethoxyphenyl)ureido]indan-5-ylsulfanyl}-2-methylpropionic acid]",–,–,0.24,4.2
"CCCCCCN(C(=O)Nc1ccc(OC(F)(F)F)cc1)C1Cc2ccc(SC(C)(C)C(=O)O)cc2C1 (centres unmarked) [Example 14, 2-Methyl-2-{2-[1-hexyl-3-(4-trifluoromethoxyphenyl)ureido]indan-5-ylsulfanyl}propionic acid]",–,–,0.3,1.3
"CCCCCN(C(=O)Nc1ccc(N(C)C)cc1)C1Cc2ccc(SC(C)(C)C(=O)O)cc2C1 (centres unmarked) [Example 9, 2-{2-[3-(4-Dimethylaminophenyl)-1-pentylureido]indan-5-ylsulfanyl}-2-methylpropionic acid]",–,–,2.9,1.0
"CCN(C(=O)Nc1ccc(C(C)C)cc1)C1Cc2ccc(SC(C)(C)C(=O)O)cc2C1 (centres unmarked) [Example 6, 2-{2-[1-Ethyl-3-(4-isopropylphenyl)ureido]indan-5-ylsulfanyl}-2-methylpropionic acid]",–,–,1.9,3.6
"CCCCCN(C(=O)Nc1ccc(SC(F)(F)F)cc1)C1Cc2ccc(SC(C)(C)C(=O)O)cc2C1 (centres unmarked) [Example 5, 2-Methyl-2-{2-[1-pentyl-3-(4-trifluoromethylsulfanylphenyl)ureido]indan-5-ylsulfanyl}propionic acid]",–,–,4.0,2.5
